Measured values published in ChEMBL document CHEMBL5584296, “Discovery of Novel Pyrimidine-Based Derivatives as Nav1.2 Inhibitors with Efficacy in Mouse Models of Epilepsy” (J Med Chem, 2024).

Experiments:
[1] = Drug concentration in male ICR mouse brain at 20 mg/kg, po measured after 0.25 hrs by LC-MS/MS analysis; assay type: ADME, organism-based; details: read-out: Ct
[2] = target: T1, Sodium channel protein type 2 subunit alpha (Homo sapiens, UniProt Q99250); assay: Inhibition of human Nav1.2 expressed in HEK293 cells assessed as test to control ratio at 10 uM measured after 5 mins by whole cell voltage clamp electrophysiological analysis; assay type: cell-based
T1 sequence (Q99250 whole entry, looked up): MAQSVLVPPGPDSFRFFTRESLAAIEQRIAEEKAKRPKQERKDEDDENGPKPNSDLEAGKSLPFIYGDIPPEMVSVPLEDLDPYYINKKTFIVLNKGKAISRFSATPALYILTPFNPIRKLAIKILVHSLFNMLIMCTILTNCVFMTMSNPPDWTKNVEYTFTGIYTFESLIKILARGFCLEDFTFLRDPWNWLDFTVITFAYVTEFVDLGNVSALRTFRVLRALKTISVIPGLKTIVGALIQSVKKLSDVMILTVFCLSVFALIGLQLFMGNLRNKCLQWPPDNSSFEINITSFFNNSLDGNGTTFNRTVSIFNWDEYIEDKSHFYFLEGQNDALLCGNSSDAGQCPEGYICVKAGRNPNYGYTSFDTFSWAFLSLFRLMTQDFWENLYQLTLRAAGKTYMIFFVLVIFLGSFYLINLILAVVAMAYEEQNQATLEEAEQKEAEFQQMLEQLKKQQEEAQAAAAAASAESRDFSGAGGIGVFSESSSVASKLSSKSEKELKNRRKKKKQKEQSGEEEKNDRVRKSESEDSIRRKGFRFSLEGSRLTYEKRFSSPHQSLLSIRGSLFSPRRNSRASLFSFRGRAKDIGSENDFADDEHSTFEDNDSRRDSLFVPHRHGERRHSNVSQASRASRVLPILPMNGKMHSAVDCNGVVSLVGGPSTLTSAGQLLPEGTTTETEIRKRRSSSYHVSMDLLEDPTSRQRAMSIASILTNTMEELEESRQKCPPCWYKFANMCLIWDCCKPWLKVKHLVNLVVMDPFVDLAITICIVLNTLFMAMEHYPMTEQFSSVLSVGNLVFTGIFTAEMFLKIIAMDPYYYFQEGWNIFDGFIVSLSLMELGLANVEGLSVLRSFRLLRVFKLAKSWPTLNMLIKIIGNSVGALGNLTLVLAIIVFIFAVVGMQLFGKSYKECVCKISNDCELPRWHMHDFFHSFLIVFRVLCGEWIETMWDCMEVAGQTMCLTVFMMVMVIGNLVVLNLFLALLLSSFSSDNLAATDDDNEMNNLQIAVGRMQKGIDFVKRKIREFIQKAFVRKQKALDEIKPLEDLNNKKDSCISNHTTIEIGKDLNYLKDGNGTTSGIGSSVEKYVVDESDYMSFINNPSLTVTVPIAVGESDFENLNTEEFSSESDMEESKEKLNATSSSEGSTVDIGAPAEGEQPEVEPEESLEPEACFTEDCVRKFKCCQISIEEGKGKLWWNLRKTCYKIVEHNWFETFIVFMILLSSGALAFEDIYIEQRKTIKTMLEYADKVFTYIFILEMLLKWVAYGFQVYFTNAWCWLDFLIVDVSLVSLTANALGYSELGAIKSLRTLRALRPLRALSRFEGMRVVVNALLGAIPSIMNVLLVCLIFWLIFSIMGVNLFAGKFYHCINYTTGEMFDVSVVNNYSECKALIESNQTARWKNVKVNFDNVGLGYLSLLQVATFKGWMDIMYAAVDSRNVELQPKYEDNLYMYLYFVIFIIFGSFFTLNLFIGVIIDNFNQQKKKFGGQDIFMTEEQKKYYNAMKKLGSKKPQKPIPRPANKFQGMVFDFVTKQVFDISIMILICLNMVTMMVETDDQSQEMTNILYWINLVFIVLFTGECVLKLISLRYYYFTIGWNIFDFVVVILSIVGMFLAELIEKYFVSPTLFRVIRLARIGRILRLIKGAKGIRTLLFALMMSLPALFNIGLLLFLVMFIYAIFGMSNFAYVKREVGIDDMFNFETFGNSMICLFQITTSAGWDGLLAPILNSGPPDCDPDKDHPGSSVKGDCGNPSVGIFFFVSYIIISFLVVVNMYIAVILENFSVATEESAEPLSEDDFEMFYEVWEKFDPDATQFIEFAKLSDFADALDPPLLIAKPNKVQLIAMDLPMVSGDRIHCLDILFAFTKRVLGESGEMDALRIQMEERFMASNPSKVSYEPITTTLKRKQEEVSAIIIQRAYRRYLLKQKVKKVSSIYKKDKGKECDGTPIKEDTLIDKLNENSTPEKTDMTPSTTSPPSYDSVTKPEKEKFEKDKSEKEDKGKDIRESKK

[3] = Neurotoxicity in male ICR mouse assessed as motor impairment at 30 mg/kg, ip administered for 30 mins by rotarod test relative to control; assay type: toxicity, organism-based; details: in vivo, 0.5 h
[4] = target: T1, Sodium channel protein type 2 subunit alpha; assay: Inhibition of human Nav1.2 expressed in HEK293 cells assessed as test to control ratio at 0.1 uM measured after 5 mins by whole cell voltage clamp electrophysiological analysis; assay type: cell-based
[5] = tested on: Mus musculus; assay: Antiepileptic activity in MES-induced seizure male ICR mouse model assessed as protection against tonic hind limb extension at 2 mg/kg, ip measured after 30 mins relative to control; assay type: functional; details: 0.5 h
[6] = target: T1, Sodium channel protein type 2 subunit alpha; assay: Inhibition of human Nav1.2 expressed in HEK293 cells at 0.1 uM measured after 5 mins by whole cell voltage clamp electrophysiological analysis relative to control; assay type: cell-based
[7] = Drug concentration in male ICR mouse plasma at 20 mg/kg, po measured after 0.25 hrs by LC-MS/MS analysis; assay type: ADME, organism-based
[8] = target: Sodium channel protein type 8 subunit alpha (Homo sapiens) (UniProt Q9UQD0); assay: Inhibition of human Nav1.6 expressed in CHO cells assessed as test to control ratio at 0.1 uM by whole cell voltage clamp electrophysiological analysis; assay type: cell-based
Sodium channel protein type 8 subunit alpha (Homo sapiens), sequence (Q9UQD0 whole entry, looked up): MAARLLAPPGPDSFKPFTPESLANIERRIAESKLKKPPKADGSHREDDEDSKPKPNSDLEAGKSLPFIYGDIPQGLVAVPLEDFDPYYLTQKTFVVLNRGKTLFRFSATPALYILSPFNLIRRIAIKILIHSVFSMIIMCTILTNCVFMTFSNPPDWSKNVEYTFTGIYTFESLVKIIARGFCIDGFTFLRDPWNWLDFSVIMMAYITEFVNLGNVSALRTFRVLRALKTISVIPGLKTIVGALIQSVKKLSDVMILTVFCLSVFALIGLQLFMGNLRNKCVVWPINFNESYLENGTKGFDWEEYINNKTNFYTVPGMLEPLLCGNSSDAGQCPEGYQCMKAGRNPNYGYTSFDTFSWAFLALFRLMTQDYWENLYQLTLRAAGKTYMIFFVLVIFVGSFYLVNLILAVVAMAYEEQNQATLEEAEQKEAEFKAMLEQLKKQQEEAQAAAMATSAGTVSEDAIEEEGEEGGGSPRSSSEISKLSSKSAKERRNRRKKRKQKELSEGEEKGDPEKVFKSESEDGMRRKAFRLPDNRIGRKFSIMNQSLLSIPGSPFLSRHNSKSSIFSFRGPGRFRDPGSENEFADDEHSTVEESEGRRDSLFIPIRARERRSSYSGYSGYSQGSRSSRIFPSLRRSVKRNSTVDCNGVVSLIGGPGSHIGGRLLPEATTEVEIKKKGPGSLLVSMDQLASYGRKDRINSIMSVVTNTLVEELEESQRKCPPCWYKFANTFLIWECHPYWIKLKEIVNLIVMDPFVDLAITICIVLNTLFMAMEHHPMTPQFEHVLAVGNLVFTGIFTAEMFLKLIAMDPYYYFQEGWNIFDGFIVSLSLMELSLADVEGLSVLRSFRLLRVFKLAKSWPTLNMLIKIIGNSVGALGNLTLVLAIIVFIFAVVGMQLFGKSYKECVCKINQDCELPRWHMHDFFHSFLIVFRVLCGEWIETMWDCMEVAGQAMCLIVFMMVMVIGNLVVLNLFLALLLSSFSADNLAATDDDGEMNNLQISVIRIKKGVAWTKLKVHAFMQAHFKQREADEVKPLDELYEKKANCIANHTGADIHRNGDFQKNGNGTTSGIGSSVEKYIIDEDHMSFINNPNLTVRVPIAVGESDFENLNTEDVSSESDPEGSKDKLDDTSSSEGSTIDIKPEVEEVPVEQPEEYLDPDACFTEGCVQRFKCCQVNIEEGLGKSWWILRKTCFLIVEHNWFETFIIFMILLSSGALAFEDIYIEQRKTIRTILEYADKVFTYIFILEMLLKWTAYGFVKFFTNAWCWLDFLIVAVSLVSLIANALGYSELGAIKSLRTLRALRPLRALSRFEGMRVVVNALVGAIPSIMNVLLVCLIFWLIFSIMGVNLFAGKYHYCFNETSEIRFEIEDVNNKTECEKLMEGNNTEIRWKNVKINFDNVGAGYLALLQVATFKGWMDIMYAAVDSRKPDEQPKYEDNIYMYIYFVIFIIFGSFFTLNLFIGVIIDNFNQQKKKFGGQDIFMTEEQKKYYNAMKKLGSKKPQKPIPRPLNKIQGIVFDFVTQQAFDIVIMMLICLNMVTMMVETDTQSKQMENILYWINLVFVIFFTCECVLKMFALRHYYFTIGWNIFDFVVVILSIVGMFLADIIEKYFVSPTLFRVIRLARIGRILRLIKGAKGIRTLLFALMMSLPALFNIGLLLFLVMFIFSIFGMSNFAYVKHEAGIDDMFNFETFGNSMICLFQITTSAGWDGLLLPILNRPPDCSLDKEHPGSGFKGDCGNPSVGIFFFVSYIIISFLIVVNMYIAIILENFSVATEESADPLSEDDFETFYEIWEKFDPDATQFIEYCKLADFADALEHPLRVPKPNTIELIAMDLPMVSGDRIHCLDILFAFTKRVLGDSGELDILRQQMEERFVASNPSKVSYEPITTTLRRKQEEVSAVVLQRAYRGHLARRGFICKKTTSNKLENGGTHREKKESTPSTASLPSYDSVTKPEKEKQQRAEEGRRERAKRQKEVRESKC

[9] = Tmax in male ICR mouse at 10 mg/kg, ip measured after 24 hrs by LC-MS/MS analysis; assay type: ADME, organism-based; details: in vivo
[10] = tested on: Mus musculus; assay: Antiepileptic activity in MES-induced seizure male ICR mouse model assessed as protection against tonic hind limb extension administered intraperitoneally for 30 mins; assay type: functional; details: 0.5 h, route ip
[11] = tested on: Mus musculus; assay: Antiepileptic activity in 6 Hz(32 mA)-induced seizure male C57BL mouse model assessed as reduction in seizure time at 100 mg/kg, ip administered for 30 mins by epilepsy test (reference value: 22.7 +/- 1.6 sec); assay type: functional; details: 0.5 h
[12] = Cmax in male ICR mouse at 10 mg/kg, ip measured after 24 hrs by LC-MS/MS analysis; assay type: ADME, organism-based; details: in vivo
[13] = Drug concentration in male ICR mouse brain at 20 mg/kg, po measured after 0.5 hrs by LC-MS/MS analysis; assay type: ADME, organism-based; details: read-out: Ct
[14] = target: Sodium channel protein type 1 subunit alpha (Homo sapiens) (UniProt P35498); assay: Inhibition of human Nav1.1 expressed in HEK293 cells assessed as test to control ratio at 1 uM by whole cell voltage clamp electrophysiological analysis; assay type: cell-based
[15] = Clearance in male ICR mouse at 1 mg/kg, iv measured after 24 hrs by LC-MS/MS analysis; assay type: ADME, organism-based; details: in vivo
[16] = Tmax in male ICR mouse at 1 mg/kg, iv measured after 24 hrs by LC-MS/MS analysis; assay type: ADME, organism-based; details: in vivo

- concentration at 0.25 h [1]: 646 ng/g
- T/C [2]: 0.02
- T/C [4]: 0.6
- inhibition [6]: 40%
- concentration at 0.25 h [7]: 166 ng/mL
- T/C [8]: 0.53
- Tmax [9]: 7.2 min
- Cmax [12]: 956 ng/mL
- concentration at 0.5 h [13]: 59.3 ng/g
- T/C [14]: 0.03
- clearance [15]: 92.1 mL/min/kg
- Tmax [16]: 3 min
SMILES: COc1cccc(-c2cc(N3CCCc4ccccc4C3)nc(N)n2)c1
- Activity [3]: 88%
- Activity [5]: 25%
- ED50 [10]: 3.2 mg/kg
- Time [11]: 12.9 s
